From patent publication US10874743B2, “IRAK degraders and uses thereof” (Kymera Therapeutics, Inc., priority 2017, dated 2020)

Biological target: T1, IRAK4 (Homo sapiens, UniProt Q9NWZ3)
T1 sequence (Q9NWZ3 1-460): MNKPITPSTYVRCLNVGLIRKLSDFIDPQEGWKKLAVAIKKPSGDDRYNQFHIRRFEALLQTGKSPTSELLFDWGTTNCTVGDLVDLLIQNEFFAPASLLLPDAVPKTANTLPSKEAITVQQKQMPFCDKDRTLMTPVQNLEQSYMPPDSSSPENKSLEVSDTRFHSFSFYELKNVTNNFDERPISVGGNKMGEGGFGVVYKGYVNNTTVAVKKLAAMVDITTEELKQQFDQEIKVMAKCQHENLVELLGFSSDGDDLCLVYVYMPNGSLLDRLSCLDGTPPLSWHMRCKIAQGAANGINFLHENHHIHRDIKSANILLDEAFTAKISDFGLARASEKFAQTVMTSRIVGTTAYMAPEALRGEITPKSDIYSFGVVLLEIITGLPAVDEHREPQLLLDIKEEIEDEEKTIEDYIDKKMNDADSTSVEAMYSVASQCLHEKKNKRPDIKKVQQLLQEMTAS
Test: OCI-LY-10 degradation assay (western blot, % IRAK4 degraded after 4 hours)
Assay type: cell-based
Design: endogenous in cells; host or cells: OCI-LY10
Details: OCI-LY10 cells; for OCI-LY10 % IRAK4 Degradation (0.01 uM) / OCI-LY10 % IRAK4 Degradation (0.1 uM) / OCI-LY10 % IRAK4 Degradation (1 uM): 4 hours; for OCI-LY10 % IRAK4 Degradation (0.01 uM): 0.01 uM compound; for OCI-LY10 % IRAK4 Degradation (0.1 uM): 0.1 uM compound; for OCI-LY10 % IRAK4 Degradation (1 uM): 1 uM compound; for OCI-LY10 % IRAK4 Degradation: IRAK4 degraded after 4 hours, western blot
Summary of the method: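 IRAK4 loss after 4 h at 37° C was scored A (>50%), B (>20-50%) or C (<20%) from infrared western blots of RIPA lysates, 20-25 μg protein per lane. Compound was applied at 0.003-10 μM final to OCI-LY10 cells cultured in RPMI-1640 with 20% FBS and 55 μM 2-ME.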

Row | OCI-LY10 % IRAK4 Degradation (0.01 uM) | OCI-LY10 % IRAK4 Degradation (0.1 uM) | OCI-LY10 % IRAK4 Degradation (1 uM) | OCI-LY10 % IRAK4 Degradation | Structure (SMILES)
1 | C (<20% degradation) | A (>50% degradation) | A (>50% degradation) | – | O=C1CCC(N2C(=O)c3ccc(OCc4cn(CCOCCOCCNCc5ccc(-n6cc(NC(=O)c7coc(-c8ccnc(NCC9CC9)c8)n7)c(C(F)F)n6)cc5)nn4)cc3C2=O)C(=O)N1 (stereo not drawn) [I-345]
2 | – | – | – | C (<20% degradation) | CC(OCCNc1cccc2c1C(=O)N(C1CCC(=O)NC1=O)C2=O)C(F)CNC(=O)c1cnc(-n2ncc3cc(C#N)cnc32)cc1NC1CC1 (stereo not drawn) [I-83]
3 | C (<20% degradation) | C (<20% degradation) | A (>50% degradation) | – | O=C1CCC(N2C(=O)c3cccc(OCc4cnnn4CCOCCOCCNCn4cc(NC(=O)c5coc(-c6ccnc(NCC7CC7)c6)n5)c(C(F)F)n4)c3C2=O)C(=O)N1 (stereo not drawn) [I-383]
4 | C (<20% degradation) | B (>20-50% degradation) | B (>20-50% degradation) | – | O=C1CCC(N2C(=O)c3cccc(NC4CN(CCOCCOCCNCc5ccc(-n6cc(NC(=O)c7coc(-c8ccnc(NCC9CC9)c8)n7)c(C(F)F)n6)cc5)C4)c3C2=O)C(=O)N1 (stereo not drawn) [I-338]
5 | C (<20% degradation) | C (<20% degradation) | B (>20-50% degradation) | – | O=C1CCC(N2C(=O)c3cccc(NCCOCCOCCOCCOCCn4cc(NC(=O)c5coc(-c6ccnc(NCC7CC7)c6)n5)c(C(F)F)n4)c3C2=O)C(=O)N1 (stereo not drawn) [I-254]
6 | A (>50% degradation) | A (>50% degradation) | A (>50% degradation) | – | NCc1nn(-c2ccc(C(=O)NCCOCCOCCNc3cccc4c3C(=O)N(C3CCC(=O)NC3=O)C4=O)cc2)cc1NC(=O)c1coc(-c2ccnc(NCC(F)(F)F)c2)n1 (stereo not drawn) [I-215]
7 | – | – | – | C (<20% degradation) | CC(C)(OCCOCCOCCOCCOCCNc1cccc2c1C(=O)N(C1CCC(=O)NC1=O)C2=O)C(F)CNC(=O)c1cnc(Nc2ccc3ncsc3c2)cc1NC1CC1 (stereo not drawn) [I-68]
8 | – | – | – | C (<20% degradation) | CC(COCC(F)CNC(=O)c1cnc(Nc2ccc3cnccc3n2)cc1NC1CC1)OCCOCCNc1cccc2c1C(=O)N(C1CCC(=O)NC1=O)C2=O (stereo not drawn) [I-70]
9 | C (<20% degradation) | B (>20-50% degradation) | B (>20-50% degradation) | – | O=C1CCC(N2C(=O)c3cccc(NC4CCN(CCOCCNCc5ccc(-n6cc(NC(=O)c7coc(-c8ccnc(NCC9CC9)c8)n7)c(C(F)F)n6)cc5)CC4)c3C2=O)C(=O)N1 (stereo not drawn) [I-385]
10 | C (<20% degradation) | A (>50% degradation) | A (>50% degradation) | – | O=C1CCC(N2C(=O)c3cccc(NCCOCCN4CCO[C@H](CNCc5ccc(-n6cc(NC(=O)c7coc(-c8ccnc(NCC9CC9)c8)n7)c(C(F)F)n6)cc5)C4)c3C2=O)C(=O)N1 (stereo partly drawn) [I-330]
11 | – | – | – | C (<20% degradation) | CC[C@@H]1[C@H](F)C(=O)N(CCOCCOCCOCCOCCNc2cccc3c2C(=O)N(C2CCC(=O)NC2=O)C3=O)[C@@H]1COc1nccc2cc(C(N)=O)c(OC)cc12 (stereo partly drawn) [I-89, 1-[[(2S,3S,4S)-1-[2-[2-[2-[2-[2-[[2-(2,6-dioxo-3-piperidyl)-1,3-dioxo-isoindolin-4-yl]amino]ethoxy]ethoxy]ethoxy]ethoxy]ethyl]-3-ethyl-4-fluoro-5-oxo-pyrrolidin-2-yl]methoxy]-7-methoxy-isoquinoline-6-carboxamide]
12 | – | – | – | C (<20% degradation) | NC(=O)c1nn(-c2ccc(C(=O)NCC#CC#CCNc3cccc4c3C(=O)N(C3CCC(=O)NC3=O)C4=O)cc2)cc1NC(=O)c1coc(-c2ccnc(NCC(F)(F)F)c2)n1 (stereo not drawn) [I-177, N-[3-carbamoyl-1-[4-[6-[[2-(2,6-dioxo-3-piperidyl)-1,3-dioxo-isoindolin-4-yl]amino]hexa-2,4-diynylcarbamoyl]phenyl]pyrazol-4-yl]-2-[2-(2,2,2-trifluoroethylamino)-4-pyridyl]oxazole-4-carboxamide]
13 | B (>20-50% degradation) | A (>50% degradation) | A (>50% degradation) | – | O=C1CCC(N2C(=O)c3cccc(OCCc4cnnn4CCOCCOCCNCc4ccc(-n5cc(NC(=O)c6coc(-c7ccnc(NCC8CC8)c7)n6)c(C(F)F)n5)cc4)c3C2=O)C(=O)N1 (stereo not drawn) [I-346]
14 | – | – | – | C (<20% degradation) | Cc1ncsc1-c1ccc(CNC(=O)[C@@H]2C[C@@H](O)CN2C(=O)[C@@H](NC(=O)COCCOCCOCCOCCOCCN2CCN([C@H]3CC[C@H](Oc4ncnc5sc6c(c45)[C@@H](C[C@H](O)C(N)=O)CC6)CC3)CC2)C(C)(C)C)cc1 [I-124, (2S,4R)-1-[(2S)-2-[[2-[2-[2-[2-[2-[2-[4-[4-[[(8R)-8-[(2S)-3-amino-2-hydroxy-3-oxo-propyl]-7,8-dihydro-6H-cyclopenta[4,5]thieno[1,2-c]pyrimidin-1-yl]oxy]cyclohexyl]piperazin-1-yl]ethoxy]ethoxy]ethoxy]ethoxy]ethoxy]acetyl]amino]-3,3-dimethyl-butanoyl]-4-hydroxy-N-[[4-(4-methylthiazol-5-yl)phenyl]methyl]pyrrolidine-2-carboxamide]
15 | – | – | – | C (<20% degradation) | CC(OCCOCCOCCNc1cccc2c1C(=O)N(C1CCC(=O)NC1=O)C2=O)C(F)CNC(=O)c1cnc(Nc2ccc3cnccc3n2)cc1NC1CC1 (stereo not drawn) [I-62]
16 | – | – | – | C (<20% degradation) | N#Cc1cnc2c(cnn2-c2cc(NC3CC3)c(C(=O)NCC(F)COc3cccc4c3C(=O)N(C3CCC(=O)NC3=O)C4=O)cn2)c1 (stereo not drawn) [I-173, 6-(5-Cyanopyrazolo[3,4-b]pyridin-1-yl)-4-(cyclopropylamino)-N-[3-[2-(2,6-dioxo-3-piperidyl)-1,3-dioxo-isoindolin-4-yl]oxy-2-fluoro-propyl]pyridine-3-carboxamide]
17 | – | – | – | C (<20% degradation) | O=C1CCC(N2C(=O)c3cccc(NCCOCCOCCNC(=O)[C@H]4C[C@H](NC(=O)c5cnc(Nc6ccc7cnccc7n6)cc5NC5CC5)C4)c3C2=O)C(=O)N1 (stereo partly drawn) [I-26, 6-((1,6-naphthyridin-2-yl)amino)-4-(cyclopropylamino)-N-((1r,3r)-3-((2-(2-(2-((2-(2,6-dioxopiperidin-3-yl)-1,3-dioxoisoindolin-4-yl)amino)ethoxy)ethoxy)ethyl)carbamoyl)cyclobutyl)nicotinamide]
18 | – | – | – | B (>20-50% degradation) | NC(=O)c1nn(C2CCN(CCOCCOCCOCCNc3cccc4c3C(=O)N(C3CCC(=O)NC3=O)C4=O)CC2)cc1NC(=O)c1coc(-c2ccnc(NCC(F)(F)F)c2)n1 (stereo not drawn) [I-170, N-[3-carbamoyl-1-[1-[2-[2-[2-[2-[[2-(2,6-dioxo-3-piperidyl)-1,3-dioxo-isoindolin-4-yl]amino]ethoxy]ethoxy]ethoxy]ethyl]-4-piperidyl]pyrazol-4-yl]-2-[2-(2,2,2-trifluoroethylamino)-4-pyridyl]oxazole-4-carboxamide]
19 | C (<20% degradation) | B (>20-50% degradation) | B (>20-50% degradation) | – | NC(=O)c1nn(-c2ccc(C(=O)NCCOCCCc3cccc4c3C(=O)N(C3CCC(=O)NC3=O)C4=O)cc2)cc1NC(=O)c1coc(-c2ccnc(NCC(F)(F)F)c2)n1 (stereo not drawn) [I-234]
20 | – | – | – | C (<20% degradation) | N#Cc1cnc2c(cnn2-c2cc(NC3CC3)c(C(=O)NCC(F)COCCOCCOCCNc3cccc4c3C(=O)N(C3CCC(=O)NC3=O)C4=O)cn2)c1 (stereo not drawn) [I-46, 6-(5-Cyanopyrazolo[3,4-b]pyridin-1-yl)-4-(cyclopropylamino)-N-[3-[2-[2-[2-[[2-(2,6-dioxo-3-piperidyl)-1,3-dioxo-isoindolin-4-yl]amino]ethoxy]ethoxy]ethoxy]-2-fluoro-propyl]pyridine-3-carboxamide]
21 | – | – | – | B (>20-50% degradation) | CC[C@@H]1[C@H](F)C(=O)N[C@@H]1COc1ncc(C#Cc2ccc(C(=O)NCCOCCOCCOCCNc3cccc4c3C(=O)N(C3CCC(=O)NC3=O)C4=O)cc2)c2cc(C(N)=O)c(OC)cc12 (stereo partly drawn) [I-126, 4-[2-[4-[2-[2-[2-[2-[[2-(2,6-Dioxo-3-piperidyl)-1,3-dioxo-isoindolin-4-yl]amino]ethoxy]ethoxy]ethoxy]ethylcarbamoyl]phenyl]ethynyl]-1-[[(2S,3S,4S)-3-ethyl-4-fluoro-5-oxo-pyrrolidin-2-yl]methoxy]-7-methoxy-isoquinoline-6-carboxamide]
22 | C (<20% degradation) | C (<20% degradation) | C (<20% degradation) | – | NC(=O)c1nn(CC#CC#CCOCCOCCNc2cccc3c2C(=O)N(C2CCC(=O)NC2=O)C3=O)cc1NC(=O)c1coc(-c2ccnc(NCC3CC3)c2)n1 (stereo not drawn) [I-434, N-[3-carbamoyl-1-[6-[2-[2-[[2-(2,6-dioxo-3-piperidyl)-1,3-dioxo-isoindolin-4-yl]amino]ethoxy]ethoxy]hexa-2,4-diynyl]pyrazol-4-yl]-2-[2-(cyclopropylmethylamino)-4-pyridyl]oxazole-4-carboxamide]
